Assay results as given in the NIST ThermoML archive (doi:10.1021/acs.jced.5b00527).
Numbers after ± are expanded uncertainties.

Tests used:
[1] = refractive index (Na D-line) (dimensionless); conditions: 298.15 K; 101.33 kPa; Liquid; Standard Abbe refractometry
[2] = 298.15 K; 101.33 kPa; Liquid; Vibrating tube method

refractive index [1]	mass density [2]	SMILES
1.3899 ± 0.0041	941.63 ± 6 kg/m3	CC(C)C(=O)O [2-methylpropanoic acid]
1.3941 ± 0.0041	807.96 ± 6 kg/m3	CCCCO [butan-1-ol]
1.3981 ± 0.0041	952.1 ± 6 kg/m3	CCCC(=O)O [butanoic acid]
1.3674 ± 0.004	723.8 ± 6 kg/m3	CC(C)OC(C)C [diisopropyl ether]
1.3281 ± 0.0041	791 ± 6 kg/m3	CO [methanol]
1.3324 ± 0.0041		O [water]
